Source: US9937259B2, “Abiraterone derivatives and non-covalent complexes with albumin” (Zhuhai Beihai Biotech Co., Ltd., priority 2014, dated 2018)

Key:
[1] = product insert; cited from earlier work
[2] = oral drug, poor absorption; cited from earlier work
[3] = depending on fat content of the meal; cited from earlier work
CYP3A4 liver enzyme = CYP3A4 liver enzyme (Homo sapiens, UniProt P08684); conditions: cited from earlier work
[4] = Persistence in plasma (incubation at 37° C., LC-MS/MS); type: in vitro ADME, human; conditions: for Peak Area Ratio (Analyte/IS): Human Plasma
Protocol: Test compounds and control (procaine) were incubated at a concentration of 10 μM with human plasma. […]
After quenching by acetonitrile, the plates were capped, vortexed, and centrifuged at 3000 rpm for 10 minutes. The supernatant was injected into LC-MS/MS.

[5] = Persistence in plasma study, PBS buffer incubation; type: physicochemical; conditions: for Peak Area Ratio (Analyte/IS): PBS Buffer (pH 7.4), 37° C.; for % Remaining after 24-hr Incubation at 37° C.: PBS buffer

CYP3A4 liver enzyme, sequence (P08684 whole entry): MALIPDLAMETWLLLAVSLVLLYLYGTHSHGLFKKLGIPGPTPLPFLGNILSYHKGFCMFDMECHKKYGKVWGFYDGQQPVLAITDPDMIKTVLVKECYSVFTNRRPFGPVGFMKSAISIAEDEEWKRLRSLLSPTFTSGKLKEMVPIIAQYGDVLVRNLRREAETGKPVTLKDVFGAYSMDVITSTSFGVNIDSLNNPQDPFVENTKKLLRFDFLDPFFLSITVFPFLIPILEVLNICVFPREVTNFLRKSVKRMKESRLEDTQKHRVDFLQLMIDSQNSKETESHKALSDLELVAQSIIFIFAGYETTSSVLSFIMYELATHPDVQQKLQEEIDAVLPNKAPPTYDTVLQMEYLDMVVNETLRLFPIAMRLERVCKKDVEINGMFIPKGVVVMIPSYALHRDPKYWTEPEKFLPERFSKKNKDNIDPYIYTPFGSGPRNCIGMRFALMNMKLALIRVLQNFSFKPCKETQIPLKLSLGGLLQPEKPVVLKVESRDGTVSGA

| Structure (SMILES) | Solubility in water [1] | Administered drug excreted [2] [%] | Food-effect [3] | Substrate of CYP3A4 (CYP3A4 liver enzyme) | Peak Area Ratio (Analyte/IS) ([4]; 0 hr, Replicate 1) | Peak Area Ratio (Analyte/IS) ([4]; 0 hr, Replicate 2) | Peak Area Ratio (Analyte/IS) ([4]; 24 hr, 37° C., Replicate 1) | Peak Area Ratio (Analyte/IS) ([4]; 24 hr, 37° C., Replicate 2) | % Remaining after 24-hr Incubation at 37° C. ([4]; human, plasma, 24 h, 10 μM) [%] | Peak Area Ratio (Analyte/IS) ([5]; Replicate 1) | Peak Area Ratio (Analyte/IS) ([5]; Replicate 2) | % Remaining after 24-hr Incubation at 37° C. ([5]; Average) [%] | % Remaining after 24-hr Incubation at 37° C. ([5]; Replicate 1) [%] | % Remaining after 24-hr Incubation at 37° C. ([5]; Replicate 2) [%] |
| --- | --- | --- | --- | --- | --- | --- | --- | --- | --- | --- | --- | --- | --- | --- |
| CC(=O)O[C@H]1CC[C@@]2(C)C(=CC[C@@H]3[C@@H]2CC[C@]2(C)C(c4cccnc4)=CC[C@@H]32)C1 [abiraterone acetate] | practically insoluble | 77 | five- to ten-fold | substrate |  |  |  |  |  |  |  |  |  |  |
| CCN(CC)CCOC(=O)c1ccc(N)cc1 [Procaine] |  |  |  |  | 0.443 | 0.444 | 0.0 | 0.0 | 0.0 | 0.0916 | 0.357 | 51 | 20.65 | 80.5 |
